What was measured:
AsPC-1 cells [1] = experiment: AsPC-1 xenograft model in Balb/C (nu/nu) mice; format: in vivo
Procedure: (§1) The anti-tumor effect of concomitant alloferon and gemcitabine treatment was also assessed by using xenograft animal model.
(§2) Tumor burdens from each experimental animals were excised and compared its volumes (FIG. 8).

[2] = test system: AsPC-1 pancreatic ductal adenocarcinoma cell line; experiment: Annexin V apoptosis assay, AsPC-1; format: cell-based
Procedure: (§3) AsPC-1 (FIG. 4(a)) and Panc-1 (FIG. 4(b)), two pancreatic ductal adenocarcinoma cell line, were cultured for week in the presence or absence of […] of alloferon, and then 5×10^5 cells were cultured with 250 nM of gemcitabine for 36 hrs. To investigate whether alloferon increases the sensitivity of these cell lines against gemcitabine, the degree of cell death was examined by an Annexin V-7AAD assay. Cells were collected and washed three times with cold phosphate-buffered saline (PBS) and then resuspended in 1× Annexin V binding buffer at a concentration of 1×10^6 cells/ml (BD Biosciences). Transfer 100 μl of the solution (1×10^5 cells) to a 5 ml culture tube. Add 5 μl of FITC-conjugated Annexin V and incubated for 15 min at room temperature in the dark. Add 400 μl of 1× Annexin V binding buffer to each tube. After 1 μl of propidium iodide (PI) was added just prior to analyze by flow cytometry. Apoptotic cells were analyzed with LSRII flow cytometer (BD Biosciences) with excitation at 488 nm and emission at 525 nm.

[3] = test system: Panc-1 pancreatic ductal adenocarcinoma cell line; experiment: Annexin V apoptosis assay, Panc-1; format: cell-based
Procedure: as §3

AsPC-1 cells [4] = experiment: Mitochondrial membrane potential assay, DiOC6(3) staining; format: cell-based; conditions: 0.5 mg/ml alloferon for week, 250 nM gemcitabine 36 hours
Procedure: The effect of adjuvant treatment of alloferon and gemcitabine on mitochondrial function was also studied. AsPC-1 cells were cultured for week in the presence or absence of 0.5 mg/ml of alloferon. Then 5×10^5 cells were cultured with 250 nM of gemcitabine for 36 hours. The synergistic effect of alloferon with gemcitabine on the decrease of mitochondrial membrane potential, a general phenomenon associated with cell death by chemotherapeutic drugs, was investigated by staining with DiOC6(3), a green-fluorescent, lipophilic dye (ThermoFisher Scientific). Cells were collected and washed three times with PBS. Then 1×10^6 cells were resuspended in 1 ml freshly prepared 4% paraformaldehyde diluted from stock using PBS for 10 minutes at room temperature and then washed with 1 ml pre-warmed (37° C.) PBS three times. The DiOC6 stock solution was diluted into PBS to make 0.1 μM working solution. The cells were suspended at a density of 1×10^6 cells/ml in dye working solution and protected from light. The cells were incubated at 37° C. for 15 minutes. The cell suspensions were centrifuged at 130×g for 5 minutes. The supernatant was removed and the cells were gently resuspended in 1 ml pre-warmed PBS. The cells were analyzed with LSRII flow cytometer (BD Biosciences) with excitation at 488 nm and emission at 525 nm.

Panc-1 cells = experiment: Panc-1 xenograft model in Balb/C (nu/nu) mice; format: in vivo
Procedure: as §1, §2

[5] = subcutaneous, female Balb/C (nu/nu), calipers every 3-4 days
[6] = gemcitabine 250 nM for 36 hrs, alloferon 0.5 μg/ml for a week

## Nc1ccn([C@@H]2O[C@H](CO)[C@@H](O)C2(F)F)c(=O)n1 [gemcitabine]
AsPC-1 cells [1]; [5]
  tumor growth (tumor volume), AsPC-1 xenograft: does not effectively suppress growth
AsPC-1 cells [1]; tumor burdens excised, FIG. 8
  excised tumor burden volume, AsPC-1 xenograft: does not effectively suppress growth
[2]; gemcitabine 250 nM
  cytotoxic effects, ASPC-1: do not have cytotoxic effects
[2]; [6]
  apoptosis, AsPC-1: do not induce apoptosis
[3]; gemcitabine 250 nM
  cytotoxic effects, PANC-1: do not have cytotoxic effects
[3]; [6]
  apoptosis, Panc-1: do not induce apoptosis
AsPC-1 cells [4]
  mitochondrial membrane potential / mitochondrial dysfunction: does not induce mitochondrial dysfunction
Panc-1 cells; [5]
  tumor growth (tumor volume), Panc-1 xenograft: does not effectively suppress growth
Panc-1 cells; tumor burdens excised, FIG. 8
  excised tumor burden volume, Panc-1 xenograft: does not effectively suppress growth
